Reference: ChEMBL document CHEMBL3872216, “Modulatory effects of silibinin in various cell signaling pathways against liver disorders and cancer - A comprehensive review” (Eur J Med Chem, 2016)
pIC50: −log10 of the molar value.

What was measured:
[1] = Cytotoxicity against human LoVo cells assessed as reduction in cell growth after 24 hrs by trypan blue exclusion assay; type: functional, cell-based
[2] = Antitumor activity against wild type B6/129PF2 mouse lung tumor assessed reduction in urethane-induced tumor growth at 742 mg/kg, po administered via gavage for 5 days per week for 18 weeks starting from 8 weeks after urethane injection measured 25 weeks after first urethane injection; type: functional; conditions: B6/129PF2, po, read-out: TGI
[3] = Cytotoxicity against human LoVo cells assessed as reduction in cell growth at 50 to 200 uM after 24 hrs by trypan blue exclusion assay; type: functional
[4] = Cytotoxicity against human LNCAP cells assessed as cell growth inhibition at 25 uM after 48 hrs in presence of 15 nM doxorubicin by manual cell counting; type: functional
[5] = Antitumor activity against humanPC3 cells xenografted in nude mouse assessed as tumor growth inhibition at 100 mg/kg, po administered via gavage for 5 days per week for 7 weeks relative to control; type: functional; conditions: Homo sapiens, PC-3, po; read-out: TGI
[6] = Cytotoxicity against human ARCaPM cells assessed as cell growth inhibition at 200 uM after 48 hrs by MTT assay relative to control; type: functional; conditions: read-out: GI
Hepatitis C virus = assay: Antiviral activity against Hepatitis C virus in liver transplanted patient with established HCV recurrence assessed as reduction in viral load at 20 mg/kg, iv administered for 14 days; type: functional, Hepacivirus hominis
[7] = Cytotoxicity against human LNCAP cells assessed as cell growth inhibition at 200 uM after 48 hrs by MTT assay relative to control; type: functional; conditions: read-out: GI
[8] = Cytotoxicity against human T47D cells assessed as reduction in cell viability after 24 hrs in presence of curcumin by MTT assay; type: functional, cell-based
Cytochrome P450 2C9 = Cytochrome P450 2C9 (Homo sapiens, UniProt P11712); assay: Inhibition of CYP2C9 in human liver microsomes using (S)-warfarin as substrate at after 30 mins by LC-MS/MS analysis; type: ADME
[9] = Cytotoxicity against human DU145 cells assessed as cell growth inhibition at 200 uM after 48 hrs by MTT assay relative to control; type: functional; conditions: DU-145, 48 h, read-out: GI
[10] = Cytotoxicity against human T47D cells assessed as reduction in cell viability after 24 hrs by MTT assay; type: functional, cell-based
[11] = Downregulation of telomerase expression in human T47D cells after 72 hrs in presence of curcumin by SYBR green-dye based RT-PCR analysis; type: functional, cell-based
[12] = Antitumor activity against human HT-29 cells xenografted in nude mouse assessed as tumor growth inhibition at 200 mg/kg, po administered 5 days per week for 32 days; type: functional; conditions: HT-29, po, read-out: TGI
[13] = Cytotoxicity against human PC3 cells assessed as cell growth inhibition at 200 uM after 48 hrs by MTT assay relative to control; type: functional; conditions: PC-3, 48 h, read-out: GI
[14] = Cytotoxicity against human DU145 cells assessed as cell growth inhibition at 100 uM after 48 hrs in presence of 25 nM doxorubicin by manual cell counting; type: functional, DU-145

Chain of Cytochrome P450 2C9 (P11712 whole entry): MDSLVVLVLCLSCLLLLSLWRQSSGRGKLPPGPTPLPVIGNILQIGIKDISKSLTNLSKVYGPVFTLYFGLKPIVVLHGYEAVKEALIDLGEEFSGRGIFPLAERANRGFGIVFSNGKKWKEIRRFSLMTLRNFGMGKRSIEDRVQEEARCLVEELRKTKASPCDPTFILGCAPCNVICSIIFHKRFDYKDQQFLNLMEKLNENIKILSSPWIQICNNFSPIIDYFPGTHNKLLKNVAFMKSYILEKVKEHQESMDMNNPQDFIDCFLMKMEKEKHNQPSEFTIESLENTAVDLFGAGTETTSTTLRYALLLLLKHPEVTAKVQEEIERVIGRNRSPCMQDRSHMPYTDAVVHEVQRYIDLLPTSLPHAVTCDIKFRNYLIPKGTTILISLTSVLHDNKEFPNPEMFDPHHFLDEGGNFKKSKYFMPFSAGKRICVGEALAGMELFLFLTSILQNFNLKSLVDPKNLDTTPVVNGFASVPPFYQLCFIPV

| pIC50 (Cytochrome P450 2C9) | pIC50 [11] | SMILES | pIC50 [1] | inhibition in vivo at 742 mg/kg [2] [%] | growth inhibition (GI) [3] | growth inhibition (GI) [4] | inhibition in vivo at 100 mg/kg [5] [%] | inhibition of growth at 200 µM [6] [%] | Activity (Hepatitis C virus) | inhibition of growth at 200 µM [7] [%] | pIC50 [8] | inhibition of growth at 200 µM [9] [%] | pIC50 [10] | inhibition in vivo at 200 mg/kg [12] [%] | inhibition of growth at 200 µM [13] [%] | growth inhibition (GI) [14] |
| --- | --- | --- | --- | --- | --- | --- | --- | --- | --- | --- | --- | --- | --- | --- | --- | --- |
| 4.74 | 4.92 | COc1cc([C@H]2Oc3cc([C@H]4Oc5cc(O)cc(O)c5C(=O)[C@@H]4O)ccc3O[C@@H]2CO)ccc1O [SILYBIN A] | 3.70 to 4.30 | 71 | 30 - 49% | 62 - 69% | 40 | 18.5 | 2.3 | 48.7 | 4.70 | 73.8 | 3.96 | ≤ 48 | 60 | 74 - 87% |
| – | – | COc1cc(/C=C/C(=O)CC(=O)/C=C/c2ccc(O)c(OC)c2)ccc1O [CURCUMIN] | – | – | – | – | – | – | – | – | – | – | 4.52 | – | – | – |
